The target in the test is human F508del-CFTR (Homo sapiens, UniProt P13569, DEL508-508). As to the kind of experiment: F508del-CFTR cell surface expression (corrector activity), DiscoveRx ß-galactosidase complementation chemiluminescence assay in recombinant U2OS cell line.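 As to all read-outs here: U2OS cells co-expressing ProLink-tagged F508del-CFTR and a membrane-anchored enzyme acceptor, where more surface CFTR restores β-galactosidase activity measured by chemiluminescence.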 The conditions noted are these: U2OS cells, 16h compound incubation; for EC50: EC50, F508del-CFTR cell surface expression, geomean of several measurements; for Emax: U2OS, in relation to the Emax of the corrector lumacaftor (=100%), arithmetic mean.
Chain of human F508del-CFTR (P13569 with tags, fused parts or gaps DEL508-508): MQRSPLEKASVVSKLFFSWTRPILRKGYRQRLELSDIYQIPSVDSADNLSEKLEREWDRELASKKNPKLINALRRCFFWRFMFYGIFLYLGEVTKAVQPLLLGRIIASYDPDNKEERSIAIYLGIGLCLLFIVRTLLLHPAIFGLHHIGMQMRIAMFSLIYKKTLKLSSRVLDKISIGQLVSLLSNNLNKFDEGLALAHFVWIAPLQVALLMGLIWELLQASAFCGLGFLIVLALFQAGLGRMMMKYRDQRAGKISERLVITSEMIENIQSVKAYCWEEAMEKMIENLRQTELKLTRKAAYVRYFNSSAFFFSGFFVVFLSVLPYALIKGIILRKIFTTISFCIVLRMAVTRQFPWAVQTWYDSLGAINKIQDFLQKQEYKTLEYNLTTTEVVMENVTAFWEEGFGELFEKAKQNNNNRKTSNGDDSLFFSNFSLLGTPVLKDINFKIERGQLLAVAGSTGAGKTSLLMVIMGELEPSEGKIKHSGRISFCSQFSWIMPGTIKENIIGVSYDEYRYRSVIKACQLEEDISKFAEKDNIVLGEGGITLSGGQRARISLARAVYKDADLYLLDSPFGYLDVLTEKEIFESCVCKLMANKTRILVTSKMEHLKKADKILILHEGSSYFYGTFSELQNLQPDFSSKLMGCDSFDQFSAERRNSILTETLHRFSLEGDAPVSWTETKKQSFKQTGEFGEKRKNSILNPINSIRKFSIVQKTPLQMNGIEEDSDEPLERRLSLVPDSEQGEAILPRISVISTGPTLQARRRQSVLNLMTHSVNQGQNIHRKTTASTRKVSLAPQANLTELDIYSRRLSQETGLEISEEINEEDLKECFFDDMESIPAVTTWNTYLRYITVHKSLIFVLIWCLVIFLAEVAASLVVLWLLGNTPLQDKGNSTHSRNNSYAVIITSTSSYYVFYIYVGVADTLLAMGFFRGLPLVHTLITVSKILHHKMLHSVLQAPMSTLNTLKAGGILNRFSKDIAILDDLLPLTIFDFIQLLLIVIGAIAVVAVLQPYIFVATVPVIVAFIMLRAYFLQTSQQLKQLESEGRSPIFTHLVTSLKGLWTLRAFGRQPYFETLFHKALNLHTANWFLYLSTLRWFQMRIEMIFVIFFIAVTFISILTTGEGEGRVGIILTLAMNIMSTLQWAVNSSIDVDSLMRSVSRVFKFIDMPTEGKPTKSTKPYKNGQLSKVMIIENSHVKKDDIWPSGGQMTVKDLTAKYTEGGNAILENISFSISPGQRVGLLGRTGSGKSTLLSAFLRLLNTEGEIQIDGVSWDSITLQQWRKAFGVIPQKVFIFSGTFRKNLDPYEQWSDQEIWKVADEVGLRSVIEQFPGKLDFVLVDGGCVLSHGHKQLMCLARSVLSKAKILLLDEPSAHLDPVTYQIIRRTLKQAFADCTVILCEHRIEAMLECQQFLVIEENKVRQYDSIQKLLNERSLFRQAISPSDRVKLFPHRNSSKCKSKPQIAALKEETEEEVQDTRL

By EC50 is commonly meant the concentration giving half of the maximal effect. For orientation: Emax means the size of the effect at its maximum, as opposed to the concentration needed. In the case of `CC(C)C[C@H]1C(=O)N(C)[C@H](Cc2nc(-c3ccc(F)cn3)no2)C(=O)N[C@H](Cc2ccccc2)COc2cnc3ccc(F)cc3c2C(=O)N[C@H](C(=O)NCCCOC(F)(F)F)CC(=O)N1C` [Example 846, (3S,7S,10R,13R)-13-benzyl-20-fluoro-10-((3-(5-fluoropyridin-2-yl)-1,2,4-oxadiazol-5-yl)methyl)-7-isobutyl-6,9-dimethyl-1,5,8,11-tetraoxo-N-(3-(trifluoromethoxy)propyl)-1,2,3,4,5,6,7,8,9,10,11,12,13,14-tetradecahydro-[1]oxa[4,7,10,14]tetraazacycloheptadecino[17,16-c]quinoline-3-carboxamide], the EC50 amounted to 165 nM and the Emax turned out to be 261%.
With `COc1ccc(CCNC(=O)[C@@H]2CC(=O)N(C)[C@@H](CC(C)C)C(=O)N(C)[C@H](Cc3nc(-c4ccc(F)cn4)no3)C(=O)N[C@H](Cc3ccccc3)COc3cnc4ccc(F)cc4c3C(=O)N2)nc1` [Example 847, (3S,7S,10R,13R)-13-benzyl-20-fluoro-10-((3-(5-fluoropyridin-2-yl)-1,2,4-oxadiazol-5-yl)methyl)-7-isobutyl-N-(2-(5-methoxypyridin-2-yl)ethyl)-6,9-dimethyl-1,5,8,11-tetraoxo-1,2,3,4,5,6,7,8,9,10,11,12,13,14-tetradecahydro-[1]oxa[4,7,10,14]tetraazacycloheptadecino[17,16-c]quinoline-3-carboxamide], the EC50 came to 186 nM and the Emax is 340%.
Take `COc1nc(C)cc2c1C(=O)N[C@H](C(=O)NC[C@@H](O)c1ccccc1)CC(=O)N(C)[C@@H](CC(C)C)C(=O)N(C)[C@H](Cc1nc(C(F)(F)F)no1)C(=O)N[C@H](Cc1ccccc1)CO2` [Example 848, (3R,6R,9S,13S)-3-benzyl-N-((S)-2-hydroxy-2-phenylethyl)-9-isobutyl-16-methoxy-7,10,18-trimethyl-5,8,11,15-tetraoxo-6-((3-(trifluoromethyl)-1,2,4-oxadiazol-5-yl)methyl)-2,3,4,5,6,7,8,9,10,11,12,13,14,15-tetradecahydropyrido[3,4-p][1]oxa[4,7,10,14]tetraazacycloheptadecine-13-carboxamide]: the EC50 was 225 nM and the Emax was determined as 364%.
Turning to `COc1nc(C)cc2c1C(=O)N[C@H](C(=O)NCCc1nc(C3CC3)no1)CC(=O)N(C)[C@@H](CC(C)C)C(=O)N(C)[C@H](Cc1nc(C(F)(F)F)no1)C(=O)N[C@H](Cc1ccccc1)CO2` [Example 849, (3R,6R,9S,13S)-3-benzyl-N-(2-(3-cyclopropyl-1,2,4-oxadiazol-5-yl)ethyl)-9-isobutyl-16-methoxy-7,10,18-trimethyl-5,8,11,15-tetraoxo-6-((3-(trifluoromethyl)-1,2,4-oxadiazol-5-yl)methyl)-2,3,4,5,6,7,8,9,10,11,12,13,14,15-tetradecahydropyrido[3,4-p][1]oxa[4,7,10,14]tetraazacycloheptadecine-13-carboxamide], the EC50 amounted to 46 nM and the Emax is 465%.
As to `COc1nccc2c1C(=O)N[C@H](C(=O)NCCCOC(F)F)CC(=O)N(C)[C@@H](CC(C)C)C(=O)N1CCCC[C@@H]1C(=O)N[C@H](Cc1ccccc1)CO2` [Example 850, (7S,11S,17aR,20R)-20-benzyl-N-(3-(difluoromethoxy)propyl)-11-isobutyl-4-methoxy-10-methyl-5,9,12,18-tetraoxo-5,6,7,8,9,10,11,12,15,16,17,17a,18,19,20,21-hexadecahydro-14H-dipyrido[2,1-f:3′,4′-p][1]oxa[4,7,10,14]tetraazacycloheptadecine-7-carboxamide], the concentration giving a half-maximal response (EC50) stood at 1150 nM and the Emax was found to be 224%.
For `Cc1noc(CC[C@@H]2C(=O)N[C@H](Cc3ccccc3)COc3cnc4ccc(F)cc4c3C(=O)N[C@H](C(=O)NCCc3noc(C4CC4)n3)CC(=O)N(C)[C@@H](CC(C)C)C(=O)N2C)n1` [Example 851, (3S,7S,10R,13R)-13-benzyl-N-(2-(5-cyclopropyl-1,2,4-oxadiazol-3-yl)ethyl)-20-fluoro-7-isobutyl-6,9-dimethyl-10-(2-(3-methyl-1,2,4-oxadiazol-5-yl)ethyl)-1,5,8,11-tetraoxo-1,2,3,4,5,6,7,8,9,10,11,12,13,14-tetradecahydro-[1]oxa[4,7,10,14]tetraazacycloheptadecino[17,16-c]quinoline-3-carboxamide] the same measures were 148 nM and 310%.
On to `Cc1cc(CCNC(=O)[C@@H]2CC(=O)N(C)[C@@H](CC(C)C)C(=O)N3CCN(c4ccc(F)cn4)C[C@@H]3C(=O)N[C@H](Cc3ccccc3)COc3cnc4ccccc4c3C(=O)N2)on1` [Example 852, (9S,13S,19aR,22R)-22-benzyl-18-(5-fluoropyridin-2-yl)-13-isobutyl-12-methyl-N-(2-(3-methylisoxazol-5-yl)ethyl)-7,11,14,20-tetraoxo-7,8,9,10,11,12,13,14,17,18,19,19a,20,21,22,23-hexadecahydro-16H-pyrazino[2′,11:6,7][1]oxa[4,7,10,14]tetraazacycloheptadecino[17,16-c]quinoline-9-carboxamide], for which the EC50 came to 163 nM and the Emax was determined as 249%.
On the same counts, the results for `COc1cccc(CCNC(=O)[C@@H]2CC(=O)N(C)[C@@H](CC(C)C)C(=O)N3CCN(c4ccc(F)cn4)C[C@@H]3C(=O)N[C@H](Cc3ccccc3)COc3cnc4ccccc4c3C(=O)N2)c1` [Example 853, (9S,13S,19aR,22R)-22-benzyl-18-(5-fluoropyridin-2-yl)-13-isobutyl-N-(3-methoxyphenethyl)-12-methyl-7,11,14,20-tetraoxo-7,8,9,10,11,12,13,14,17,18,19,19a,20,21,22,23-hexadecahydro-16H-pyrazino[2′,1′:6,7][1]oxa[4,7,10,14]tetraazacycloheptadecino[17,16-c]quinoline-9-carboxamide] are 92 nM and 322%.
As for `COc1cc(CCNC(=O)[C@@H]2CC(=O)N(C)[C@@H](CC(C)C)C(=O)N(C)[C@H](CC3CCC(F)(F)CC3)C(=O)N[C@H](Cc3ccccc3)COc3ccnc(OC)c3C(=O)N2)on1` [Example 854, (3R,6R,9S,13S)-3-benzyl-6-((4,4-difluorocyclohexyl)methyl)-9-isobutyl-16-methoxy-N-(2-(3-methoxyisoxazol-5-yl)ethyl)-7,10-dimethyl-5,8,11,15-tetraoxo-2,3,4,5,6,7,8,9,10,11,12,13,14,15-tetradecahydropyrido[3,4-p][1]oxa[4,7,10,14]tetraazacycloheptadecine-13-carboxamide], the EC50 stood at 136 nM and the Emax came out at 326%.
For the molecule `COc1nccc2c1C(=O)N[C@H](C(=O)NCCc1cc(C)no1)CC(=O)N(C)[C@@H](CC(C)C)C(=O)N(C)[C@H](CCOc1ccccc1)C(=O)N[C@H](Cc1ccccc1)CO2` [Example 855, (3R,6R,9S,13S)-3-benzyl-9-isobutyl-16-methoxy-7,10-dimethyl-N-(2-(3-methylisoxazol-5-yl)ethyl)-5,8,11,15-tetraoxo-6-(2-phenoxyethyl)-2,3,4,5,6,7,8,9,10,11,12,13,14,15-tetradecahydropyrido[3,4-p][1]oxa[4,7,10,14]tetraazacycloheptadecine-13-carboxamide], the EC50 was 80 nM and the Emax was 341%.
With `COc1cc(CCNC(=O)[C@@H]2CC(=O)N(C)[C@@H](CC(C)C)C(=O)N(C)[C@H](CCOc3ccccc3)C(=O)N[C@H](Cc3ccccc3)COc3ccnc(OC)c3C(=O)N2)on1` [Example 856, (3R,6R,9S,13S)-3-benzyl-9-isobutyl-16-methoxy-N-(2-(3-methoxyisoxazol-5-yl)ethyl)-7,10-dimethyl-5,8,11,15-tetraoxo-6-(2-phenoxyethyl)-2,3,4,5,6,7,8,9,10,11,12,13,14,15-tetradecahydropyrido[3,4-p][1]oxa[4,7,10,14]tetraazacycloheptadecine-13-carboxamide], the EC50 is 35 nM and the Emax was 357%.
Turning to `COc1nccc2c1C(=O)N[C@H](C(=O)NCCc1noc(C3CC3)n1)CC(=O)N(C)[C@@H](CC(C)C)C(=O)N(C)[C@H](COC1CCC1)C(=O)N[C@H](Cc1ccccc1)CO2` [Example 857, (3R,6R,9S,13S)-3-benzyl-6-(cyclobutoxymethyl)-N-(2-(5-cyclopropyl-1,2,4-oxadiazol-3-yl)ethyl)-9-isobutyl-16-methoxy-7,10-dimethyl-5,8,11,15-tetraoxo-2,3,4,5,6,7,8,9,10,11,12,13,14,15-tetradecahydropyrido[3,4-p][1]oxa[4,7,10,14]tetraazacycloheptadecine-13-carboxamide], the EC50 came to 407 nM and the Emax came to 337%.
In the case of `COc1nccc2c1C(=O)N[C@H](C(=O)NCCc1cc(C)no1)CC(=O)N(C)[C@@H](CC(C)C)C(=O)N(C)[C@H](CCOC1CCCCC1)C(=O)N[C@H](Cc1ccccc1)CO2` [Example 858, (3R,6R,9S,13S)-3-benzyl-6-(2-(cyclohexyloxy)ethyl)-9-isobutyl-16-methoxy-7,10-dimethyl-N-(2-(3-methylisoxazol-5-yl)ethyl)-5,8,11,15-tetraoxo-2,3,4,5,6,7,8,9,10,11,12,13,14,15-tetradecahydropyrido[3,4-p][1]oxa[4,7,10,14]tetraazacycloheptadecine-13-carboxamide], the EC50 stood at 95 nM and the Emax was found to be 308%.
Turning to `COc1nccc2c1C(=O)N[C@H](C(=O)NCCc1noc(C3CC3)n1)CC(=O)N(C)[C@@H](CC(C)C)C(=O)N(C)[C@H](Cc1nc(-c3ccccc3)no1)C(=O)N[C@H](Cc1ccccc1)CO2` [Example 859, (3R,6R,9S,13S)-3-benzyl-N-(2-(5-cyclopropyl-1,2,4-oxadiazol-3-yl)ethyl)-9-isobutyl-16-methoxy-7,10-dimethyl-5,8,11,15-tetraoxo-6-((3-phenyl-1,2,4-oxadiazol-5-yl)methyl)-2,3,4,5,6,7,8,9,10,11,12,13,14,15-tetradecahydropyrido[3,4-p][1]oxa[4,7,10,14]tetraazacycloheptadecine-13-carboxamide], the EC50 is 36 nM and the Emax worked out at 342%.

These data come from patent US20240208992A1, “MACROCYCLES AS CFTR MODULATORS” (Idorsia Pharmaceuticals Ltd, priority 2021, published 2024).
